Ends that are not written are not given here.
Legend:
[1] = target: T1, recombinant human Flt-1 fusion protein (Homo sapiens, UniProt P17948); experiment: Free peptide binding and competition ELISA, Flt-1-coated wells
T1 construct: purchased R & D Systems
Procedure: Competition assays were done with 2.5 or 25 U/ml heparin (Sigma, St. Louis, Mo.). BP1, 3, 4, and a scrambled version of BP3 (scrBP3) were synthesized with a linker followed by the FLAG epitope ([…] SEQ ID NO:5) at the C-terminus. Thirty minutes after addition of the first reagent, the second reagent was added, followed by another 30 minute incubation. Peptide binding was assessed by probing for the FLAG epitope (Prickett et al., Biotechniques 7:580-9, 1989; Castrucci et al., J. Virol. 66:4647-53, 1992). Absorbance was read at 490 nm.

MDA-MB-231 mfp tumor = experiment: Orthotopic mammary fat pad (mfp) MDA-MB-231 model; type: in vivo, SCID mice
Text: MDA-MB-231, grown in tissue culture, was also implanted in the mammary fat pad (mfp) of SCID mice (3×10^6 cells, 4-5 mice/group). In this model, large pulmonary metastases are less likely to develop (Richert et al., Breast Cancer Res. 7:R819-27, 2005). Peptide treatment was commenced on day 5 after implantation, when small tumors were palpable in all mice (8 treatments). Three days after the final peptide treatment, tumors were removed and weighed. Lungs were harvested and examined microscopically for metastases, as described above.

MDA-MB-231 = experiment: Matrigel cell invasion assay, MDA-MB-231; type: cell-based, human
Procedure: (§1) Cellular invasion was determined by addition of 5×10^4cells to growth factor-reduced Matrigel invasion chambers (BD Biosciences Discovery Labware, Bedford, Mass.) (Taylor et al., 2003b; Passaniti et al., 1992, Lab Invest 67, 519-528). Additives to the Matrigel® plugs were pre-incubated together in a total volume of 100 μl PBS at RT for 10 min, after which each additive was added to the Matrigel. Growth factors (2.0 or 0.2 nM), peptide (2 μg/ml), or antibody (1 μg/ml) were added to cells in low serum (0.1% fetal bovine serum [FBS]) medium. Baseline and chemoattractant-based invasion (10% FBS) were included. The number of invading cells was determined by counting the number of cells on the bottom of the invasion chamber membrane after staining at 100× magnification after 24 h (MDA-MB-231) or 48 h (MCF-7, MDA-MB-468). The results of three to five separate experiments are presented.

[2] = tested on: PlGF-mediated angiogenesis in corneal tissues; experiment: Mouse corneal micropocket angiogenesis assay; type: in vivo, C57B16/J mice; details: micropellets, 100 ng PlGF with 1 μM peptide, day 5
Procedure: The ability of PlGF ligands to block PlGF-mediated angiogenesis in corneal tissues in vivo is investigated. Corneal micropockets are created using a modified von Graefe cataract knife in both eyes of male 5-6-wk-old C57B16/J mice. Micropellets comprised of a sustained release formulation of polyglucuronic acid/polylactic acid containing 100 ng of PlGF or PlGF with 1 μM BP-1, BP-2, BP-3 or BP-4 are implanted into each corneal pocket. Eyes are examined by a slit-lamp biomicroscope on day 5 after pellet implantation. Vessel length and neovascularization are measured.

[3] = tested on: MDA-MB-231 s.c. xenograft; experiment: Subcutaneous MDA-MB-231 xenograft growth and lung metastasis; type: in vivo, nude mice
Procedure: The tissue-culture-grown human breast tumor cell line, MDA-MB-231, was implanted subcutaneously (s.c.) on the flanks of nude mice. When tumors were visible, the mice were weighed and the tumors measured. Treatment with peptides was begun when tumors averaged about 0.06-0.12 cm^3 in volume. Mice were treated with 200-μg peptide in PBS by i.p. injection at 3-4-day intervals for 4 weeks. Animals were weighed and the tumors measured at each treatment. In a second experiment, the control peptide, CPA, was included. Three days after the final treatment, tumors and lungs were harvested. Tumor burden of the lungs (from experiment 1) was determined by counting colonies (<20 cells), clusters (>20-100 cells), and nodules (>100 cells) seen in all the lung tissue on a total of 4 slides or sections for each mouse. Data are presented as the average number of each size of metastasis for each treatment group (3-4 mice/group). The total number of each was summed for each treatment group, and divided by the total number of mice in that group. The percent inhibition for metastasis was determined by the formula: % inhibition=(# mock-treated−# treated/# mock-treated)×100.
To test for therapeutic activity of the peptide, BP1, mice were implanted with human breast cancer cells, MDA-MB-231, which produces lung metastases spontaneously when implanted as a subcutaneous tumor. When the tumors averaged 0.12 cm^3 in volume, either mock-treatment or therapy with BP1 was initiated at 200 μg, two times per week for 4 weeks. […] In a subsequent experiment, treatment was commenced when tumors were 0.07-0.08 cm^3. After 4 weeks of treatment, as described, the mean volume of the mock- and CPA-treated tumors was 0.25 and 0.33 cm^3, respectively, whereas BP1-treated tumors averaged 0.04 cm^3 (P<0.05 BP1 vs. mock- or CPA-treated tumors) (FIG. 3A).

MCF-7 = experiment: Matrigel cell invasion assay, MCF-7; type: cell-based, human; details: 48 h
Procedure: as §1

T1 sequence (P17948 with tags, fused parts or gaps limits assumed): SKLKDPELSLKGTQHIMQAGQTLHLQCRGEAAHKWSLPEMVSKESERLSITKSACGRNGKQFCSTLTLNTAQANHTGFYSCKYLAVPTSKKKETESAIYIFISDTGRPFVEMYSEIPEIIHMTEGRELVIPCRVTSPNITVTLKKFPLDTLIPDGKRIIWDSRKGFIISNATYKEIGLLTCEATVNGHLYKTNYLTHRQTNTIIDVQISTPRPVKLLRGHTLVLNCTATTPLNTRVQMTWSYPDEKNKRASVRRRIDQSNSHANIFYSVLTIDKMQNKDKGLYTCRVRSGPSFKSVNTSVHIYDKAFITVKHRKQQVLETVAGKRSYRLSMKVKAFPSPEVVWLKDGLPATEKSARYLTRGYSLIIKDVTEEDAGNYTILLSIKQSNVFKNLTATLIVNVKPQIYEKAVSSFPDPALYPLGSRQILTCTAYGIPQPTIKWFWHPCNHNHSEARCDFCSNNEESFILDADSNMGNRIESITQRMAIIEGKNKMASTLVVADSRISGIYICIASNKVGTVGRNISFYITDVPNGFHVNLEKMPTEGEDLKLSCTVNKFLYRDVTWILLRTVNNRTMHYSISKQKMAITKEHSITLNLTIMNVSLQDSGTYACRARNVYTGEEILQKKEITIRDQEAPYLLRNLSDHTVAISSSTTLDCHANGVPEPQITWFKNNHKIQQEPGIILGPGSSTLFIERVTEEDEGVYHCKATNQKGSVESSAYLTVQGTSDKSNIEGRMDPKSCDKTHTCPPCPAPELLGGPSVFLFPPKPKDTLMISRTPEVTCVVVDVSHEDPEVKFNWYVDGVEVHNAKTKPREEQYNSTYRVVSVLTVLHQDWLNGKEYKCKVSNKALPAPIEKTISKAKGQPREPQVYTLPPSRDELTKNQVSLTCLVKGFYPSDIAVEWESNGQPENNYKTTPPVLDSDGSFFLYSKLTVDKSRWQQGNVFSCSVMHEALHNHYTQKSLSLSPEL

Sequence: SHRYRLAIQLHASDSSSSCV [BP1]
- binding to Flt-1, fold over background [1]: 10 fold
- inhibition at 1 µM ([1]; 1 μM BP1 followed by 2.5 U/ml heparin, read-out: inhibition of BP1 binding to Flt-1, BP1 added prior to heparin): 13%
- binding to immobilized Flt-1 (A490), BP1 only ([1]; 5 μM BP1 only): 0.527±0.025
- binding to immobilized Flt-1 (A490), with added free Flt-1 ([1]; 5 μM BP1 with added free Flt-1 (2 nM)): 0.327±0.127
- decrease in BP1 binding to Flt-1, heparin added before BP1 ([1]; 2.5 U/ml heparin followed by 1 μM BP1): 64%
- effect of PlGF on the binding of BP1 to Flt-1 ([1]; PlGF between 1 and 100 nM): no significant effect
- decrease in binding of BP1 to immobilized Flt-1 by free Flt-1 ([1]; free Flt-1 2 nM, 5 μM BP1): 38%
- binding to Flt-1 (A490) ([1]; peptide with C-terminal FLAG epitope): 0.886±0.096
- tumor weight (MDA-MB-231 mfp tumor; 8 peptide treatments, mock-treated 0.423±0.089): 0.345 ± 0.095 g
- reduction in metastases (MDA-MB-231 mfp tumor; lung micrometastases): 82%
- micrometastasis counts per mouse (MDA-MB-231 mfp tumor; lung, mock-treated 3.4±1.9): 0.6±0.5
- decrease in tumor weight (MDA-MB-231 mfp tumor; vs mock-treated, did not reach statistical significance): 23%
- Average fold-change in the number of cells on the membrane compared to untreated controls (MDA-MB-231; PlGF 0.2 nM ± peptide 2 μg/ml, 24 h): 1.3 ± 0.1 fold
- invading cells, PlGF plus peptide (MDA-MB-231; PlGF-stimulated invasion with added peptide, 24 h): 15±4.2 cells
- decrease in PlGF-stimulated invasion (MDA-MB-231; added peptide): 50%
- Average fold-change in the number of cells on the membrane compared to untreated controls (MDA-MB-231; peptide 2 μg/ml alone, 24 h): 1.0 ± 0.6 fold
- effect on PlGF mediated angiogenesis in corneal tissues [2]: inhibits
- reduction in tumor size compared to mock-treated controls ([3]; start at 0.12 cm^3, 200 μg two times per week for 4 weeks): 37%
- mean tumor volume after 4 weeks of treatment ([3]; subsequent experiment, start at 0.07-0.08 cm^3, 200 μg i.p., mock 0.25): 0.04 cm^3
- lung colonies (<20 cells) per mouse ([3]; total lung tissue/mouse, mock 36±6): 5±2
- lung clusters (>20-100 cells) per mouse ([3]; total lung tissue/mouse, mock 76±19): 9±2
- lung nodules (>100 cells) per mouse ([3]; total lung tissue/mouse, mock 78±25): 5±2
- decrease in the number of metastatic lung nodules ([3]; vs mock-treated): 94%
- Average fold-change in the number of cells on the membrane compared to untreated controls (MCF-7; PlGF 0.2 nM ± peptide 2 μg/ml): 0.3 ± 0.0 fold
- Average fold-change in the number of cells on the membrane compared to untreated controls (MCF-7; peptide 2 μg/ml alone): 0.7 ± 0.4 fold
